Patent US20170340742A1, “A METHOD FOR DELIVERING A SUBSTANCE INTO CELLS” (TECHNISCHE UNIVERSITÄT DARMSTADT, priority 2014, published 2017)
No end group written: not given here. Ahx = NCCCCCC(=O)O

Test system: living cells
Assay: Comparative test of cellular penetration of cell-penetrating compounds with and without mediator compounds at low and high pH
Type: cell-based
Parameters: key: −: no uptake detectable; +: low efficiency of uptake detectable; ++: moderate efficiency of uptake detectable; +++: strong de efficiency of uptake detectable; ++++: very strong efficiency of uptake detectable
Conditions: compound 2 μM, 30 min
Method: A comparative test of cellular penetration of different cell-penetrating compounds was performed in the presence and absence of different mediator compounds at low and high pH. The cell-penetrating compounds (2 μM) and the mediator compounds (6 μM) were mixed in Hepes buffers at low pH (6.5) and high pH (8.5).
The cell media (DMEM) was removed and exchanged by these solutions and incubated for 30 min. Then the solutions were removed and the cells were embedded back in cell culture media (DMEM) and imaged. The efficiency of uptake in the different conditions was determined.
The determined efficacy is depicted with increasing efficacy from “−” no uptake detectable, “+” low efficiency of uptake detectable, “++” moderate efficiency of uptake detectable, “+++” strong de efficiency of uptake detectable, “++++” very strong efficiency of uptake detectable.

Measured: Efficiency of uptake

TAMRA-Ahx-LGQQQPFPPQQPY ({TAMRA-Ahx}-LGQQQPFPPQQPY)
−: Mediator 1: Curcumin 6 μM, high pH of 8.5 | Mediator 1: Curcumin 6 μM, low pH of 6.5 | Mediator 2: Levothyroxine 6 μM, high pH of 8.5 | Mediator 2: Levothyroxine 6 μM, low pH of 6.5 | no mediator, high pH of 8.5 | no mediator, low pH of 6.5
